Source: patent US4169944A, “Cholesterol biosynthesis inhibitors” (University Patents, Inc., priority 1977, dated 1979)
Values joined by “and” are separate entries in the source; they are usually repeats but may differ in a detail not shown here. Identical values can stand only once. Like-named read-outs stand apart in the source and are kept apart here. Blank lines part the entries; values can stand above or below the molecule they belong to.

Key:
HMG-CoA reductase [1] = target: T1, HMG-CoA reductase (Rattus norvegicus, UniProt P51639); assay: HMG-CoA reductase activity in crude soluble extract of rat liver microsomes; format: biochemical; conditions: for HMG-CoA reductase activity: 1.98 without inhibitor
T1 construct: from tissue; host or cells: rat liver microsomes, crude soluble extract
T1 sequence (P51639 1-887): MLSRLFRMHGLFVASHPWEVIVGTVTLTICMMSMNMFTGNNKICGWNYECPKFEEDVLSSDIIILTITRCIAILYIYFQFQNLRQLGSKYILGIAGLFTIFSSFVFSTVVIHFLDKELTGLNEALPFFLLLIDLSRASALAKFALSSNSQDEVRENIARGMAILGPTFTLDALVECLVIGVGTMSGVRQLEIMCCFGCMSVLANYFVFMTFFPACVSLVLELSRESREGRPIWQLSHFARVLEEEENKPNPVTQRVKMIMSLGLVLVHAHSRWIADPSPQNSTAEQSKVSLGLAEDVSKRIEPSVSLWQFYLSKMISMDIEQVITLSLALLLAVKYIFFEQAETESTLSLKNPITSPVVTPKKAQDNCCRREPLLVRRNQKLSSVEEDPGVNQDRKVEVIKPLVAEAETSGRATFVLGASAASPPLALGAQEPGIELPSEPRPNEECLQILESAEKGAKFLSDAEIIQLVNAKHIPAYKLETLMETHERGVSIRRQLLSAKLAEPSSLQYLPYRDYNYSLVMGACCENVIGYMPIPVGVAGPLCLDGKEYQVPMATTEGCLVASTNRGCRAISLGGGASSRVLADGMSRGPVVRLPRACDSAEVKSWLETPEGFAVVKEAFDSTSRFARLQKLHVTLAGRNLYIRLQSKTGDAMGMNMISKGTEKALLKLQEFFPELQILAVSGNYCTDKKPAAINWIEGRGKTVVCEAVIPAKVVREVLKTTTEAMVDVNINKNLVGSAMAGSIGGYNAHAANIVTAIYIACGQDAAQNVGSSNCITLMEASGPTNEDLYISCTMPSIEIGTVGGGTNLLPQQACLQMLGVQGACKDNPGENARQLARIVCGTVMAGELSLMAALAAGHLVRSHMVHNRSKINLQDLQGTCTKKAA
Protocol: Crude soluble extract from rat liver microsomes was prepared as previously described (2). HMG-CoA reductase activity and incubation conditions were conducted as previously described (2,3).
The relative potencies, as HMG-CoA reductase inhibitors, of trifluoro-HMG-CoA, trifluoro-HMG and trifluoro-HMG anhydride were investigated.
The inhibition of HMG-CoA reductase activity was measured in crude soluble extract from rat liver microsomes. Crude soluble extract from rat liver microsomes was prepared as previously described (2). HMG-CoA reductase activity and incubation conditions were conducted as previously described (2,3). The HMG-CoA reductase activity of the crude soluble extract in the absence of inhibitor was considered as 100% and activities measured in the presence of inhibitors were compared to this norm.

HMG-CoA reductase [2] = target: T1, HMG-CoA reductase; assay: Inhibition of purified HMG-CoA reductase; format: biochemical; conditions: 1.1 mM, purified enzyme
Protocol: Hmg-coA reductase was purified from rat liver microsomes as previously described (2). HMG-CoA reductase activity assay and incubation conditions were conducted as previously described (2,3).

[3] = target: T2, rat liver microsomal HMG-CoA reductase (Rattus norvegicus, UniProt P51639); assay: Kinetics of inhibition of rat liver microsomal HMG-CoA reductase; format: biochemical
T2 construct: rat liver microsomal HMG-CoA reductase; from tissue; host or cells: rat liver microsomes
T2 sequence (P51639 1-887): T1 sequence (P51639 1-887)
Protocol: Table III summarizes the results of an experiment in which the kinetics of inhibition of rat liver microsomal HMG-CoA reductase by trifluoro-HMG-CoA were measured.
The velocity of mevalonate formation was first measured in the absence of trifluoro-HMG-CoA, varying the concentration of the substrate [3-^14 C]HMG-CoA. Then the same experiment was conducted in the presence of trifluoro-HMG-CoA (600 μM). The data were analyzed by means of an Eadie-Hofstee plot.

[4] = tested on: incorporation of [1-^14 C] acetate into cholesterol (nonsaponifiable extract) in intact rat liver cells; assay: Incorporation of [1-^14 C] acetate into cholesterol (nonsaponifiable extract) in intact liver cells; format: cell-based
Protocol: Duplicate samples contained 3.7 ml of hepatocyte suspension and 0.28 ml of saturated KHCO3 (pH […]) which contained varying final concentrations (0, 0.01, 0.10 or 1.0 mM) of trifluoro-HMG-CoA. Preincubation was conducted for 60 minutes. 10 μCi of [1-^14 C] sodium acetate, dissolved in Krebs Ringer bicarbonate buffer, was then added to each sample. Incubation was conducted for 120 minutes in a Dubnoff shaker. Saponification and extraction were conducted as previously described (4).

HMG-CoA reductase [5] = target: T1, HMG-CoA reductase; assay: Liver microsomal HMG-CoA reductase activity in rats treated with trifluoro-HMG-CoA; format: in vivo; conditions: 0.2 mg per intraperitoneal injection, 6 days
Protocol: (§1) Control rats received an injection of the vehicle (KHCO3 buffer) used for trifluoro-HMG-CoAinjection. Liver microsomes were isolated from these animals, and HMG-CoA reductase activity was measured. The control group average HMG-CoA reductase specific activity was 1.25 nmol mevalonate formed/min/mg protein. […] This difference was statistically significant at the p=0.005 level.
(§2) Twelve male rats of identical age were used. Six rats served as the control group; these rats received an intraperitoneal injection of KHCO3 buffer (0.2 ml) once per day (3:00 pm) for six days, except on the final day when additional injections were given at 10:00 pm and 6:00 am the following day. The drug-treated group of six rats received intraperitoneal injections of trifluoro-HMG-CoA (0.2 mg) in KHCO3 buffer (0.2 ml) on the same schedule as described above for the control group. The data were further analyzed by the t statistic between the mean for each group.

[6] = Total body weights and liver weights of treated and control rats; format: in vivo, rat; conditions: 0.2 mg per intraperitoneal injection, 6 days
Protocol: as §1, §2

[7] = substrate: CC(O)(CC(=O)O)CC(=O)SCCNC(=O)CCNC(=O)[C@H](O)C(C)(C)COP(=O)(O)OP(=O)(O)OC[C@H]1O[C@@H](n2cnc3c(N)ncnc32)[C@H](O)[C@@H]1OP(=O)(O)O; assay: cells, lysate or membranes named; conditions: other: absence of trifluoro-HMG-CoA; Eadie-Hofstee plot
[8] = 1 mM, crude soluble extract, relative potencies (Table VI), read-out: Inhibition of HMG-CoA reductase activity

Molecule: CC(C)(COP(=O)(O)OP(=O)(O)OC[C@H]1O[C@@H](n2cnc3c(N)ncnc32)[C@H](O)[C@@H]1OP(=O)(O)O)[C@@H](O)C(=O)NCCC(=O)NCCSC(=O)CC(O)(CC(=O)O)C(F)(F)F (stereo partly drawn) [Trifluoro-HMG-CoA, 3-Hydroxy-3-Trifluoromethylglutaryl-Coenzyme A]
- inhibition at 10 µM (HMG-CoA reductase [1]; 0.01 mM, crude soluble extract): 7%
- HMG-CoA reductase activity (HMG-CoA reductase [1]; 0.01 mM, crude soluble extract): 1.85 nmol mevalonate formed/min/ml
- inhibition at 100 µM (HMG-CoA reductase [1]; 0.10 mM, crude soluble extract): 35%
- HMG-CoA reductase activity (HMG-CoA reductase [1]; 0.10 mM, crude soluble extract): 1.29 nmol mevalonate formed/min/ml
- Relative potency versus the free acid [3-hydroxy-3-trifluoromethylglutaric acid] (HMG-CoA reductase [1]; 1 mM, crude soluble extract): substantially more potent inhibitor than the free acid
- inhibition at 1000 µM (HMG-CoA reductase [1]; 1.00 mM, crude soluble extract (Table I), read-out: Inhibition): 78%
- HMG-CoA reductase activity (HMG-CoA reductase [1]; 1.00 mM, crude soluble extract): 0.44 nmol mevalonate formed/min/ml
- inhibition at 1000 µM (HMG-CoA reductase [1]; [8]): 78%
- Inhibition (in words) (HMG-CoA reductase [1]; 0.1 and 1.0 mM, crude soluble extract): significant inhibition
- inhibition at 1100 µM (HMG-CoA reductase [2]): 73%
- HMG-CoA reductase specific activity (HMG-CoA reductase [2]; 931.9 without inhibitor): 253.5 nmol mevalonate formed/min/mg
- Ki ([3]; rat liver microsomes, substrate HMG-CoA, Eadie-Hofstee plot): 54 µM
- Inhibition type ([3]; versus natural substrate HMG-CoA): competitive inhibitor
- inhibition at 10 µM ([4]; Rattus norvegicus, 0.01 mM, preincubation 60 minutes, incubation 120 minutes): 34%
- inhibition at 100 µM ([4]; Rattus norvegicus, 0.10 mM, preincubation 60 minutes, incubation 120 minutes): 67%
- inhibition at 1000 µM ([4]; Rattus norvegicus, 1.00 mM, preincubation 60 minutes, incubation 120 minutes): 88%
- IC50 ([4]; Rattus norvegicus, calculated from the Table IV experiment, intact liver cells, read-out: Concentration for 50% inhibition of cholesterol formation): ~40 µM
- Inhibition of cholesterol formation (in words) ([4]; concentrations as low as 0.01 mM): significant inhibition of cholesterol formation
- HMG-CoA reductase specific activity, average of treated rats (HMG-CoA reductase [5]; average of six rats, control average 1.25, p=0.005): 0.63 nmol mevalonate formed/min/mg protein
- HMG-CoA reductase specific activity, individual treated rats (HMG-CoA reductase [5]; individual rat): 0.42 nmol mevalonate formed/min/mg protein and 0.59 nmol mevalonate formed/min/mg protein and 0.83 nmol mevalonate formed/min/mg protein and 0.58 nmol mevalonate formed/min/mg protein and 0.95 nmol mevalonate formed/min/mg protein and 0.40 nmol mevalonate formed/min/mg protein
- Total body weights and liver weights, treated versus control group [6]: not significantly different

B1: rat liver microsomal HMG-CoA reductase (Rattus norvegicus) (protein)
chain: T1 sequence (P51639 1-887)
- Km [7]: 34.5 µM

Further lines, results first:

- inhibition at 1000 µM (HMG-CoA reductase [1]; [8]): 11%
Molecule: O=C(O)CC(O)(CC(=O)O)C(F)(F)F [Trifluoro-HMG, 3-Hydroxy-3-Trifluoromethylglutaric Acid]

- inhibition at 1000 µM (HMG-CoA reductase [1]; [8]): 27%
Molecule: O=C1CC(O)(C(F)(F)F)CC(=O)O1 [Trifluoro-HMG-anhydride, 3-Hydroxy-3-Trifluoromethylglutaric Anhydride]
